Data reported in patent US12497365B2, “4-pyridinyl formamide compound or derivative thereof, preparation method therefor, herbicidal composition and use thereof” (Qingdao Kingagroot Chemical Compound Co., Ltd., priority 2019, dated 2025).

Legend:
Assay in all cases: Weeding effect in post-emergence stage
Assay type in all cases: in vivo
Conditions in all cases: active ingredient 2000 g/ha, 3 weeks after application, fresh weight control rate
Descurainia sophia = tested on: Descurainia sophia
Method in brief: (§1)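 Post-emergence spray, 2-3 leaf stage; acetone/Tween 80 formulation + methyl oleate EC synergist (1.5 liter/ha); 125-2000 g/ha via spray tower. Greenhouse, 3 wk. Read-out: fresh weight growth control rate, graded by activity level.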

[1] = tested on: Amaranthus retroflexus L.
Method in brief: as §1

Chenopodium album = tested on: Chenopodium album
Method in brief: as §1

Abutilon theophrasti = tested on: Abutilon theophrasti
Method in brief: as §1

Structure (SMILES)	Weeding effect, activity level (growth control rate), Descurainia sophia (Descurainia sophia)	Weeding effect, activity level (growth control rate), Amaranthus retroflexus L. [1]	Weeding effect, activity level (growth control rate), Chenopodium album (Chenopodium album)	Weeding effect, activity level (growth control rate), Abutilon theophrasti (Abutilon theophrasti)
Cn1nnnc1NC(=O)c1ccnc(-c2cc(C#N)ccn2)c1Cl [Compound 1-122]	5 (Level 5: growth control rate is above 85%)	5 (Level 5: growth control rate is above 85%)	5 (Level 5: growth control rate is above 85%)	5 (Level 5: growth control rate is above 85%)
Cn1nnnc1NC(=O)c1ccnc(-c2ccc(F)cc2)c1C(F)(F)F [Compound 1-198]	5 (Level 5: growth control rate is above 85%)	5 (Level 5: growth control rate is above 85%)	5 (Level 5: growth control rate is above 85%)	5 (Level 5: growth control rate is above 85%)
Cn1nnnc1NC(=O)c1ccnc(OCC(F)(F)F)c1Cl [Compound 1-2062]	5 (Level 5: growth control rate is above 85%)	5 (Level 5: growth control rate is above 85%)	5 (Level 5: growth control rate is above 85%)	5 (Level 5: growth control rate is above 85%)
Cn1nnnc1NC(=O)c1ccnc(-c2cnc(F)nc2)c1Cl [Compound 1-158]	5 (Level 5: growth control rate is above 85%)	5 (Level 5: growth control rate is above 85%)	5 (Level 5: growth control rate is above 85%)	5 (Level 5: growth control rate is above 85%)
Cc1nnc(-c2nccc(C(=O)Nc3nnnn3C)c2Cl)s1 [Compound 1-249]	5 (Level 5: growth control rate is above 85%)	5 (Level 5: growth control rate is above 85%)	5 (Level 5: growth control rate is above 85%)	5 (Level 5: growth control rate is above 85%)
Cc1c(C(=O)Nc2nnnn2C)ccnc1-c1ccc(F)cc1 [Compound 1-194]	5 (Level 5: growth control rate is above 85%)	5 (Level 5: growth control rate is above 85%)	5 (Level 5: growth control rate is above 85%)	5 (Level 5: growth control rate is above 85%)
CSc1nccc(C(=O)Nc2nnnn2C)c1Cl [Compound 1-2065]	5 (Level 5: growth control rate is above 85%)	5 (Level 5: growth control rate is above 85%)	5 (Level 5: growth control rate is above 85%)	5 (Level 5: growth control rate is above 85%)
Cn1nnnc1NC(=O)c1ccnc(-c2ccc(S(=O)(=O)N3CCOCC3)cc2)c1Cl [Compound 1-46]	5 (Level 5: growth control rate is above 85%)	5 (Level 5: growth control rate is above 85%)	5 (Level 5: growth control rate is above 85%)	5 (Level 5: growth control rate is above 85%)
COc1cc(F)cc(-c2nccc(C(=O)Nc3nnnn3C)c2Cl)c1 [Compound 1-71]	5 (Level 5: growth control rate is above 85%)	5 (Level 5: growth control rate is above 85%)	5 (Level 5: growth control rate is above 85%)	5 (Level 5: growth control rate is above 85%)
Cn1nnnc1NC(=O)c1ccnc(-c2cnn(Cc3ccccc3)c2)c1Cl [Compound 1-175]	5 (Level 5: growth control rate is above 85%)	5 (Level 5: growth control rate is above 85%)	5 (Level 5: growth control rate is above 85%)	5 (Level 5: growth control rate is above 85%)
COc1ccc(-c2nccc(C(=O)Nc3nnnn3C)c2Cl)c(C)c1 [Compound 1-104]	5 (Level 5: growth control rate is above 85%)	5 (Level 5: growth control rate is above 85%)	5 (Level 5: growth control rate is above 85%)	5 (Level 5: growth control rate is above 85%)
Cn1nnnc1NC(=O)c1ccnc(-c2ccc(F)c(C#N)c2)c1Cl [Compound 1-84]	5 (Level 5: growth control rate is above 85%)	5 (Level 5: growth control rate is above 85%)	5 (Level 5: growth control rate is above 85%)	5 (Level 5: growth control rate is above 85%)
Cn1nnnc1NC(=O)c1ccnc(-c2ccco2)c1Cl [Compound 1-184]	5 (Level 5: growth control rate is above 85%)	5 (Level 5: growth control rate is above 85%)	5 (Level 5: growth control rate is above 85%)	5 (Level 5: growth control rate is above 85%)
Cn1nnnc1NC(=O)c1ccnc(-c2cnc(N)nc2)c1Cl [Compound 1-160]	5 (Level 5: growth control rate is above 85%)	5 (Level 5: growth control rate is above 85%)	5 (Level 5: growth control rate is above 85%)	5 (Level 5: growth control rate is above 85%)
Cn1nnnc1NC(=O)c1ccnc(-c2cccc3ccccc23)c1Cl [Compound 1-111]	5 (Level 5: growth control rate is above 85%)	5 (Level 5: growth control rate is above 85%)	5 (Level 5: growth control rate is above 85%)	5 (Level 5: growth control rate is above 85%)
Cn1nnnc1NC(=O)c1ccnc(-c2ccccc2Oc2ccccc2)c1Cl [Compound 1-57]	5 (Level 5: growth control rate is above 85%)	5 (Level 5: growth control rate is above 85%)	5 (Level 5: growth control rate is above 85%)	5 (Level 5: growth control rate is above 85%)
Cc1cc(Cl)ncc1-c1nccc(C(=O)Nc2nnnn2C)c1Cl [Compound 1-138]	5 (Level 5: growth control rate is above 85%)	5 (Level 5: growth control rate is above 85%)	5 (Level 5: growth control rate is above 85%)	5 (Level 5: growth control rate is above 85%)
Cn1nnnc1NC(=O)c1ccnc(-c2cc(-c3ccccc3)cc(-c3ccccc3)c2)c1Cl [Compound 1-108]	5 (Level 5: growth control rate is above 85%)	5 (Level 5: growth control rate is above 85%)	5 (Level 5: growth control rate is above 85%)	5 (Level 5: growth control rate is above 85%)
O=C(Nc1ncco1)c1ccnc(-c2ccc(F)cc2)c1Cl [Compound 1-1607]	5 (Level 5: growth control rate is above 85%)	5 (Level 5: growth control rate is above 85%)	5 (Level 5: growth control rate is above 85%)	5 (Level 5: growth control rate is above 85%)
